Several values for one entry are separate records, joined by “and”; a condition that tells them apart may be missing. Equal values may be shown once.

As for `NC(=O)c1ccc(F)c(Cl)c1` [3-chloro-4-fluorobenzamide], the melting point (usually the temperature, or range, at which the solid turns liquid) was 146 °C. Compound `Cc1cccc(Cl)c1N` [2-chloro-6-methylaniline] registered a melting point of 2 °C. In turn, `CCOC(=O)C#CC(=O)OCC` [diethyl acetylenedicarboxylate] registered a melting point of 2 °C. As for `CC1CCCC1` [methylcyclopentane], the melting point was -142 °C. In the case of `N#CC(c1ccccc1[N+](=O)[O-])c1ccccc1[N+](=O)[O-]` [bis(2-nitrophenyl)acetonitrile], the melting point worked out at 110 °C. To `CC(C(=O)O)c1cccc(C(=O)c2ccccc2)c1` (stereo not given) [ketoprofen] belongs 94 °C (2×) and 93 °C; to `Nc1ccc2ncccc2c1` [6-aminoquinoline], 117 °C; to `O=C1OC(c2ccccc2)=NC1=Cc1ccccc1F` [4-(2-Fluoro-benzylidene)-2-phenyl-4H-oxazol-5-one], 149 °C. As for `N#Cc1ccc(Cc2ccccc2)cc1` [p-benzyl_benzonitrile], the melting point was 51 °C. On to `CCSC` [ethyl methyl sulfide], for which the melting point was -106 °C. To `[2H]C([2H])([2H])C([2H])([2H])C([2H])([2H])C([2H])([2H])C([2H])([2H])C([2H])([2H])C([2H])([2H])C([2H])([2H])C([2H])([2H])C([2H])([2H])[2H]` [(~2~H_22_)Decane] belongs -30 °C. The figure for `O=Cc1ccc(C=O)cc1` [terephthaldicarboxaldehyde] is 116 °C. For the compound `COCOC` [dimethoxymethane], the melting point is -105 °C. The compound `O[C@H]1O[C@H](COCc2ccccc2)[C@@H](OCc2ccccc2)[C@H](OCc2ccccc2)[C@H]1OCc1ccccc1` [2,3,4,6-tetra-o-benzyl-alpha-D-glucopyranose] displayed a melting point of 151 °C. Compound `N#CCc1cccc(C(F)(F)F)c1Cl` [2-chloro-3-(trifluoromethyl)phenylacetonitrile] gave a melting point of 58 °C.

Compound `Cc1cc(C)c(Br)cc1C` [5-bromo-1,2,4-trimethylbenzene] yielded a melting point of 72 °C. On to `Nc1ccccc1C(=O)OCC=Cc1ccccc1` [anthranilic acid cinnamyl ester], for which the melting point came to 65 °C. Consider `OB(O)c1ccc2ccccc2c1` [2-naphthaleneboronic acid], for which the melting point stood at 267 °C. `CC(=O)Oc1cccc(C(=O)O)c1C` [3-acetoxy-2-methylbenzoic acid] returned a melting point of 150 °C. In turn, `CCC1(c2ccccc2)CCC(=O)NC1=O` (stereo not given) [glutethimide] showed a melting point of 87.5 °C.

As for `CC(N)(CO)CO` [2-Amino-2-methylpropane-1,3-diol], the melting point came out at 111 °C. In the case of `CCOB(OCC)OCC` [triethyl borate], the melting point is -85 °C. The figure for `O=C(O)c1ccc(-n2nc(-c3ccccc3O)nc2-c2ccccc2O)cc1` [Deferasirox] is 116 °C.

The compound `Nc1ccc([N+](=O)[O-])cc1N` [4-nitro-o-phenylenediamine] returned a melting point of 201 °C. In turn, `N#Cc1cccc(C(F)(F)F)c1` [3-(trifluoromethyl)benzonitrile] returned a melting point of 16 °C. For the compound `Cc1cc(CCN2CCN(c3cccc(Cl)c3)CC2)n[nH]1` [mepiprazole], the melting point was found to be 106 °C. For `CCCCCCCCCCCCCCCO` [1-pentadecanol], the melting point is 46 °C. `c1ccc([C@H]2CN3CCSC3=N2)cc1` [Levamisole] displayed a melting point of 264 °C. For the compound `CCCC(C)(COC(N)=O)COC(N)=O` [Meprobamate], the melting point was found to be 105 °C. `CCOc1ccc(NC(=O)CN)cc1` [phenocoll] came in with a melting point of 101 °C. The compound `Cc1cc(N)n[nH]1` [3-amino-5-methyl-1h-pyrazole] returned a melting point of 45 °C. In turn, `NC(CCC(=O)O)C(=O)O` (stereo in doubt) [D-Glutamic Acid] displayed a melting point of 201 °C. The figure for `C[Si]1(C)O[Si](C)(C)O[Si](C)(C)O[Si](C)(C)O[Si](C)(C)O1` [decamethylcyclopentasiloxane] is -44 °C; for `CCCCCCCCCCC(C)=O` [2-dodecanone] it is 21 °C. Consider `Nc1ccccc1` [aniline], for which the melting point was -6 °C (4×) and -6.2 °C (2×).

In the case of `CC(C)C(C)(C)O` [2,3-dimethyl-2-butanol], the melting point is -10 °C. `CC12CCC(C(C(c3ccccc3)c3ccccc3)C1=O)C2(C)C` (stereo not given) [2-Bornanone, 3-(diphenylmethyl)-]: the melting point was found to be 107 °C.

For `C=C(C)C(=O)O` [methacrylic acid], the melting point amounted to 16 °C. To `CCOC(=O)C(NC(=O)c1ccccc1)C(=O)OCC` [diethyl benzamidomalonate] belongs 63 °C; to `O=[N+]([O-])c1ccc(Cl)cc1` [4-Chloronitrobenzene], 83.5 °C; to `CC(=O)c1ccc2ccccc2c1` [2-Acetylnaphthalene], 55 °C. Consider `O=C(Cl)c1ccc(Cl)cc1` [4-Chlorobenzoyl chloride], for which the melting point turned out to be 13 °C. Compound `Cc1cc(Br)ccc1N` [4-bromo-2-methylaniline] returned a melting point of 52 °C. Turning to `Oc1c(F)c(F)c(O)c(F)c1F` [2,3,5,6-tetrafluorohydroquinone], the melting point was 169 °C. `CCCCCCCC/C=C/CCCCCCCC(=O)O` [elaidic acid] returned a melting point of 43 °C. With `Oc1ccc(Cl)c(O)c1` [4-chlororesorcinol], the melting point is 107 °C. To `CCCCCCCCCCCCCCCCCCN` [Octadecan-1-amine] belongs 56 °C; to `O=Cc1ccc(B(O)O)cc1Cl` [3-chloro-4-formylbenzeneboronic acid], 212 °C. Compound `NC(CO)Cc1ccccc1` (single isomer, unassigned; (-)) [(-)-2-amino-3-phenyl-1-propanol] displayed a melting point of 92 °C. Consider `CC(=O)c1ccccn1` [2-acetylpyridine], for which the melting point came out at 9 °C. Compound `CCCCCCCCCCCCCCCCCC(=O)OC[C@@H](O)[C@H]1OC[C@H](O)[C@H]1O` [1,4-Anhydro-6-O-stearoyl-D-glucitol] yielded a melting point of 57 °C. For the compound `Brc1ccc(-c2ccc(Br)cc2)cc1` [p,p'-dibromobiphenyl], the melting point stood at 170 °C. The figure for `COC(=O)/C=C/C(=O)OC` [Dimethyl (2E)-but-2-enedioate] is 104 °C; for `O=C(N[C@@H](CO)C(=O)O)OCc1ccccc1` [N-benzyloxycarbonyl-l-serine] it is 119 °C; for `CCOC(=O)c1ccc(N)cc1` [ethyl-4-aminobenzoate (benzocaine)] it is 89 °C. `O=C(O)CCc1nc(-c2ccccc2)c(-c2ccccc2)o1` [Oxaprozin] had a melting point of 158 °C. Compound `N=C(N)NCC1COc2ccccc2O1` (stereo not given) [guanoxan] came in with a melting point of 164 °C. On to `CCCCC1=NC2(CCCC2)C(=O)N1Cc1ccc(-c2ccccc2-c2nnn[nH]2)cc1` [Irbesartan], for which the melting point is 180 °C.

For the compound `CC(N)C(=O)O` (stereo not given) [alanine], the melting point amounted to 292 °C. In the case of `COC(=O)c1ccccc1C(=O)OC` [Dimethyl phthalate], the melting point is 2 °C. `COc1ccc(C(=O)O)cc1[N+](=O)[O-]` [4-methoxy-3-nitrobenzoic acid] showed a melting point of 188 °C. `CCCCCCCCCCCCCC(C)C` [2-Methylpentadecane]: the melting point is -7 °C. The compound `NC(=O)c1ccccc1O` [salicylamide] displayed a melting point of 142 °C.

`CCCCOC(=O)c1ccc(O)cc1` [butyl 4-hydroxybenzoate]: the melting point was 69 °C.

In turn, `CCOC(=O)c1cnn(-c2ccccc2)c1` [ethyl 1-phenyl-1h-pyrazole-4-carboxylate] registered a melting point of 98 °C. The figure for `CCN(CC)CCSC(=O)N(c1ccccc1)c1ccccc1` [phencarbamide] is 48 °C; for `CC(C)c1ccc(O)cc1` [4-isopropylphenol] it is 60 °C. To `O=C1CN(C(=O)OCc2ccccc2)CCN1` [4-benzyloxycarbonyl-2-piperazinone] belongs 120 °C. To `OB(O)c1cc(-c2ccccc2)cc(-c2ccccc2)c1` [1,1':3',1''-terphenyl-5'-boronic acid] belongs 294 °C. Regarding `Oc1ccccc1C=Nc1ccccc1` [salicylideneaniline], the melting point turned out to be 50 °C. Consider `O=C1CCCN1` [2-pyrrolidinone], for which the melting point amounted to 24 °C.

For `Cc1c[n+]([O-])ccc1[N+](=O)[O-]` [4-nitro-3-picoline n-oxide], the melting point is 136 °C. The figure for `COC(=O)c1cc2ccccc2cn1` [methyl isoquinoline-3-carboxylate] is 86 °C; for `CC(C)(C)OC(=O)N1CCS[C@H]1C(=O)O` [(S)-3-boc-thiazolidine-2-carboxylic acid] it is 92 °C.

The compound `O=C(O)Cc1ccccc1OCc1ccccc1` [2-benzyloxyphenylacetic acid] returned a melting point of 97 °C. In turn, `COc1cc(CC(=O)O)c([N+](=O)[O-])cc1OC` [4,5-dimethoxy-2-nitrophenylacetic acid] had a melting point of 207 °C. Turning to `Cc1cc(C)cc([N+](=O)[O-])c1` [5-nitro-1,3-dimethylbenzene], the melting point is 74 °C.

`CCOC(=O)c1cnn(C)c1N` [ethyl 5-amino-1-methyl-1h-pyrazole-4-carboxylate] displayed a melting point of 100 °C.

Regarding `CCCSc1ccc2[nH]c(NC(=O)OC)nc2c1` [albendazole], the melting point came out at 209 °C. `O=C(O)CCCC[C@@H]1CCSS1` [5-[(3R)-1,2-Dithiolan-3-yl]pentanoic acid] had a melting point of 60 °C. Consider `Cc1c(C)c(C)c(C)c(C)c1C` [hexamethylbenzene], for which the melting point worked out at 165 °C.

`O=S(=O)(Cl)Cc1ccc(F)cc1` [4-fluoro-alpha-toluenesulfonyl chloride] returned a melting point of 60 °C.

The compound `Oc1c(Cl)cccc1Cl` [2,6-dichlorophenol] showed a melting point of 67 °C.

As for `CCCCOc1cc(C(=O)NCCN(CC)CC)c2ccccc2n1` [dibucaine], the melting point was 64.5 °C. Turning to `Oc1ccc(Cl)c(Cl)c1` [3,4-dichlorophenol], the melting point is 68 °C and 66 °C.

These data come from the Bradley open melting point set (2014).
